Counter-ions that a name gives are not always drawn.
Assays:
[1] = molecular target: T1, recombinant human Dopamine Subtype D2s receptors (Homo sapiens, UniProt P14416); assay: Dopamine D2 selectivity binding assay ([3H]-spiperone); conditions: inhibition of [3H]-spiperone binding, human D2s membranes; read-out: D2 bind pIC50 (converted)
T1 construct: purchased Perkin Elmer
Procedure: Membranes containing recombinant human Dopamine Subtype D2s receptors were obtained from Perkin Elmer. These were diluted in Assay Buffer (50 mM HEPES, 1 mM EDTA, 120 mM NaCl, 0.1% gelatin, pH 7.4) to provide a final concentration of membranes that gave a clear window between maximum and minimum specific binding.
Assays were performed in U-bottomed 96-well polypropylene plates. 30 μL [^3H]-spiperone (0.16 nM final concentration) and 30 μl of test compound (10× final concentration) were added to each test well. For each assay plate 8 replicates were obtained for [^3H]-spiperone binding in the presence of 30 μL vehicle (10% (v/v) DMSO in Assay Buffer; defining maximum binding) or 30 μl Haloperidol (10 μM final concentration; defining non-specific binding (NSB)). Membranes were then added to achieve a final volume of 300 μL. The plates were incubated for 2 h at room temperature and then filtered onto PEI coated GF/B filter plates, pre-soaked for 1 h in Assay Buffer, using a 96-well plate Tomtec cell harvester. Five washes with 250 μl wash buffer (50 mM HEPES, 1 mM EDTA, 120 mM NaCl, pH 7.4) were performed at 4° C. to remove unbound radioactivity. The plates were dried then sealed from underneath using Packard plate sealers and MicroScint-O (50 μl) was added to each well. The plates were sealed (TopSeal A) and filter-bound radioactivity was measured with a scintillation counter (TopCount, Packard BioScience) using a 3-minute counting protocol.
Total specific binding (B0) was determined by subtracting the mean NSB from the mean maximum binding. NSB values were also subtracted from values from all other wells. […] Data was fitted to a four parameter logistic equation to determine the compound potency, which was expressed as pIC50 (negative log molar concentration inducing 50% inhibition of [^3H]-spiperone binding).

Adrenergic β2 = molecular target: T2, Adrenergic β2 (Homo sapiens, UniProt P07550); assay: Adrenergic β2 mediated cAMP production in H292 cells (AlphaScreen cAMP detection); assay type: cell-based; conditions: for β2 Int Act: Intrinsic Activity, fraction relative to the maximum activity determined for formoterol; for EC50: cAMP production, 60 min at room temperature, 300 μM rolipram, read-out: β2 pEC50 (converted)
T2 construct: Adherent H292 cells were removed from tissue culture flasks; endogenous in cells; host or cells: H292 cells
Procedure: H292 cells were grown in 225 cm2 flasks incubator at 37° C., 5% CO2 in RPMI medium containing, 10% (v/v) FBS (foetal bovine serum) and 2 mM L-glutamine.
Adherent H292 cells were removed from tissue culture flasks by treatment with Accutase™ cell detachment solution for 15 min. Flasks were incubated for 15 min in a humidified incubator at 37° C., 5% CO2. Detached cells were re-suspended in RPMI media (containing 10% (v/v) FBS and 2 mM L-glutamine) at […]. 10000 cells in 100 μl were added to each well of a tissue-culture-treated 96-well plate and the cells incubated overnight in a humidified incubator at 37° C., 5% CO2. The culture media was removed and cells were washed twice with 100 μl assay buffer and replaced with 50 μL assay buffer (HBSS solution containing 10 mM HEPES pH7.4 and 5 mM glucose). Cells were rested at room temperature for 20 min after which time 25 μl of rolipram (1.2 mM made up in assay buffer containing 2.4% (v/v) dimethylsulphoxide) was added. Cells were incubated with rolipram for 10 min after which time test compounds were added and the cells were incubated for 60 min at room temperature. The final rolipram concentration in the assay was 300 μM and final vehicle concentration was 1.6% (v/v) dimethylsulphoxide. The reaction was stopped by removing supernatants, washing once with 100 μL assay buffer and replacing with 50 μL lysis buffer. The cell monolayer was frozen at −80° C. for 30 min (or overnight).
AlphaScreen™ cAMP Detection
The concentration of cAMP (cyclic adenosine monophosphate) in the cell lysate was determined using AlphaScreen™ methodology. The frozen cell plate was thawed for 20 min on a plate shaker then 10 μl of the cell lysate was transferred to a 96-well white plate. 40 μL of mixed AlphaScreen™ detection beads pre-incubated with biotinylated cAMP, was added to each well and the plate incubated at room temperature for 10 h in the dark. The AlphaScreen™ signal was measured using an EnVision spectrophotometer (Perkin-Elmer Inc.) with the recommended manufacturer's settings. cAMP concentrations were determined by reference to a calibration curve determined in the same experiment using standard cAMP concentrations. Concentration response curves for agonists were constructed and data was fitted to a four parameter logistic equation to determine both the pEC50 and Intrinsic Activity. Intrinsic Activity was expressed as a fraction relative to the maximum activity determined for formoterol in each experiment.

T1 sequence (P14416 1-414 isoform P14416-2): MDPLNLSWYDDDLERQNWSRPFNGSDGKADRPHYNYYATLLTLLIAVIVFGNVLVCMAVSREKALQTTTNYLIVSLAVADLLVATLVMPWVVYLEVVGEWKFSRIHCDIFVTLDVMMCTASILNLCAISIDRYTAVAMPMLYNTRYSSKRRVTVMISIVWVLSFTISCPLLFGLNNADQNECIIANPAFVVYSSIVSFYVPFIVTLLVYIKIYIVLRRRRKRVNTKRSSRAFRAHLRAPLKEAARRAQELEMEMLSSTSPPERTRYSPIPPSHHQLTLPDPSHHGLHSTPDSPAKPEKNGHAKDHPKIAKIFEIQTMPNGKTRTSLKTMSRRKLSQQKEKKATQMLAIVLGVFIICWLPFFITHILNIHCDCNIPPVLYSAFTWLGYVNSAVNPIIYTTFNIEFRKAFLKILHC
T2 sequence (P07550 whole entry): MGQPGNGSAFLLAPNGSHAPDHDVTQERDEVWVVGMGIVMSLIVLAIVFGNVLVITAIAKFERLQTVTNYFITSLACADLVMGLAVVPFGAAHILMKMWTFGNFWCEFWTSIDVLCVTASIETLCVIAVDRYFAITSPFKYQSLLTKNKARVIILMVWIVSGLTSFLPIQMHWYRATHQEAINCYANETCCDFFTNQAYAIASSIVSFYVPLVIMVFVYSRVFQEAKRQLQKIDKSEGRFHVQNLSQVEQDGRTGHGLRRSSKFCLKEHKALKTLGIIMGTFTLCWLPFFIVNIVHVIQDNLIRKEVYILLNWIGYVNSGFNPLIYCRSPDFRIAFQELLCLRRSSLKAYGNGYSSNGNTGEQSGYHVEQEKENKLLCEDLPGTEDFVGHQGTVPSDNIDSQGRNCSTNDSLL

Row | IC50 [1] [nM] | β2 Int Act (Adrenergic β2) | EC50 (Adrenergic β2) [nM] | Structure (SMILES)
1 | 6310 | 0.92 | 15.8 | Cn1nnc(-c2cccc(CCOCCC(=O)N(CCNCCc3ccc(O)c4c3OCC(=O)N4)C3CCCCC3)c2)n1 [Example 07, N-Cyclohexyl-N-(2-(2-(5-hydroxy-3-oxo-3,4-dihydro-2H-benzo[b][1,4]oxazin-8-yl)ethylamino)ethyl)-3-(3-(2-methyl-2H-tetrazol-5-yl)phenethoxy)propanamide Trifluoroacetic Acid Salt]
2 | 2510 | 0.81 | 10 | Cn1nccc1-c1cccc(CCOCCC(=O)N(CCNCCc2ccc(O)c3c2OCC(=O)N3)C2CCCCC2)c1 [Example 03, N-Cyclohexyl-N-(2-(2-(5-hydroxy-3-oxo-3,4-dihydro-2H-benzo[b][1,4]oxazin-8-yl)ethylamino)ethyl)-3-(3-(1-methyl-1H-pyrazol-5-yl)phenethoxy)propanamide Trifluoroacetic Acid Salt]
3 | 1580 | 0.85 | 6.31 | Cc1c(-c2cccc(CCOCCC(=O)N(CCNCCc3ccc(O)c4c3OCC(=O)N4)C3CCCCC3)c2)cnn1C [Example 37, N-Cyclohexyl-3-(3-(1,5-dimethyl-1H-pyrazol-4-yl)phenethoxy)-N-(2-(2-(5-hydroxy-3-oxo-3,4-dihydro-2H-benzo[b][1,4]oxazin-8-yl)ethylamino)ethyl)propanamide Trifluoroacetic Acid Salt]
4 | 3160 | 1.03 | 12.6 | Cc1nc(-c2cccc(CCOCCC(=O)N(CCNCCc3ccc(O)c4c3OCC(=O)N4)C3CCCCC3)c2)cn1C [Example 35, N-Cyclohexyl-3-(3-(1,2-dimethyl-1H-imidazol-4-yl)phenethoxy)-N-(2-(2-(5-hydroxy-3-oxo-3,4-dihydro-2H-benzo[b][1,4]oxazin-8-yl)ethylamino)ethyl)propanamide Trifluoroacetic Acid Salt]
5 | 2000 | 0.90 | 50.1 | CCn1ccnc1-c1cccc(CCOCCC(=O)N(CCNCCc2ccc(O)c3c2OCC(=O)N3)C2CCCCC2)c1 [Example 29, N-Cyclohexyl-3-(3-(1-ethyl-1H-imidazol-2-yl)phenethoxy)-N-(2-(2-(5-hydroxy-3-oxo-3,4-dihydro-2H-benzo[b][1,4]oxazin-8-yl)ethylamino)ethyl)propanamide Trifluoroacetic Acid Salt]
6 | 1000 | 0.88 | 10 | O=C1COc2c(CCNCCN(C(=O)CCOCCc3cccc(-c4cnco4)c3)C3CCCCC3)ccc(O)c2N1 [Example 10, N-Cyclohexyl-N-(2-(2-(5-hydroxy-3-oxo-3,4-dihydro-2H-benzo[b][1,4]oxazin-8-yl)ethylamino)ethyl)-3-(3-(oxazol-5-yl)phenethoxy)propanamide Trifluoroacetic Acid Salt]
7 | 2510 | 0.95 | 7.94 | O=C1COc2c(CCNCCN(C(=O)CCOCCc3cccc(-c4c[nH]nn4)c3)C3CCCCC3)ccc(O)c2N1 [Example 14, 3-(3-(1H-1,2,3-Triazol-4-yl)phenethoxy)-N-cyclohexyl-N-(2-(2-(5-hydroxy-3-oxo-3,4-dihydro-2H-benzo[b][1,4]oxazin-8-yl)ethylamino)ethyl)propanamide Trifluoroacetic Acid Salt]
8 | 3160 | 0.93 | 12.6 | Cn1ccnc1-c1cccc(CCOCCC(=O)N(CCNCCc2ccc(O)c3c2OCC(=O)N3)C2CCCCC2)c1 [Example 33, N-Cyclohexyl-N-(2-(2-(5-hydroxy-3-oxo-3,4-dihydro-2H-benzo[b][1,4]oxazin-8-yl)ethylamino)ethyl)-3-(3-(1-methyl-1H-imidazol-2-yl)phenethoxy)propanamide]

Further lines, the compound ahead of its results:

Row | Structure (SMILES) | IC50 [1] [nM] | β2 Int Act (Adrenergic β2) | EC50 (Adrenergic β2) [nM]
9 | CC(C)n1cc(-c2cccc(CCOCCC(=O)N(CCNCCc3ccc(O)c4c3OCC(=O)N4)C3CCCCC3)c2)nn1 [Example 12, N-Cyclohexyl-N-(2-(2-(5-hydroxy-3-oxo-3,4-dihydro-2H-benzo[b][1,4]oxazin-8-yl)ethylamino)ethyl)-3-(3-(1-isopropyl-1H-1,2,3-triazol-4-yl)phenethoxy)propanamide Trifluoroacetic Acid Salt] | 3980 | 0.91 | 20
10 | CCn1cc(-c2cccc(CCOCCC(=O)N(CCNCCc3ccc(O)c4c3OCC(=O)N4)C3CCCC3)c2)cn1 [Example 24, N-Cyclopentyl-3-(3-(1-ethyl-1H-pyrazol-4-yl)phenethoxy)-N-(2-(2-(5-hydroxy-3-oxo-3,4-dihydro-2H-benzo[b][1,4]oxazin-8-yl)ethylamino)ethyl)propanamide Trifluoroacetic Acid Salt] | 3160 | 0.95 | 7.94
11 | CCn1cc(-c2cccc(CCOCCC(=O)N(CCNCCc3ccc(O)c4c3OCC(=O)N4)[C@H](C)C(C)(C)C)c2)cn1 [Example 25, (R)—N-(3,3-Dimethylbutan-2-yl)-3-(3-(1-ethyl-1H-pyrazol-4-yl)phenethoxy)-N-(2-(2-(5-hydroxy-3-oxo-3,4-dihydro-2H-benzo[b][1,4]oxazin-8-yl)ethylamino)ethyl)propanamide Trifluoroacetic Acid Salt] | 3980 | 0.90 | 12.6
12 | Cc1nc(-c2cccc(CCOCCC(=O)N(CCNCCc3ccc(O)c4c3OCC(=O)N4)C3CCCCC3)c2)[nH]c1C [Example 32, N-Cyclohexyl-3-(3-(4,5-dimethyl-1H-imidazol-2-yl)phenethoxy)-N-(2-(2-(5-hydroxy-3-oxo-3,4-dihydro-2H-benzo[b][1,4]oxazin-8-yl)ethylamino)ethyl)propanamide] | 631 | 1.00 | 7.94
13 | C[C@@H](N(CCNCCc1ccc(O)c2c1OCC(=O)N2)C(=O)CCOCCc1cccc(-c2cnn(C)c2)c1)C(C)(C)C [Example 26, (R)—N-(3,3-Dimethylbutan-2-yl)-N-(2-(2-(5-hydroxy-3-oxo-3,4-dihydro-2H-benzo[b][1,4]oxazin-8-yl)ethylamino)ethyl)-3-(3-(1-methyl-1H-pyrazol-4-yl)phenethoxy)propanamide Trifluoroacetic Acid Salt] | 2510 | 0.88 | 12.6
14 | COCCn1cc(-c2cccc(CCOCCC(=O)N(CCNCCc3ccc(O)c4c3OCC(=O)N4)C3CCCCC3)c2)cn1 [Example 36, N-Cyclohexyl-N-(2-(2-(5-hydroxy-3-oxo-3,4-dihydro-2H-benzo[b][1,4]oxazin-8-yl)ethylamino)ethyl)-3-(3-(1-(2-methoxyethyl)-1H-pyrazol-4-yl)phenethoxy)propanamide Trifluoroacetic Acid Salt] | > 7940 | 1.05 | 20
15 | Cn1cc(-c2cccc(CCOCCC(=O)N(CCNCCc3ccc(O)c4c3OCC(=O)N4)C3CCCCC3)c2F)cn1 [Example 16, N-Cyclohexyl-3-(2-fluoro-3-(1-methyl-1H-pyrazol-4-yl)phenethoxy)-N-(2-(2-(5-hydroxy-3-oxo-3,4-dihydro-2H-benzo[b][1,4]oxazin-8-yl)ethylamino)ethyl)propanamide Trifluoroacetic Acid Salt] | 2000 | 1.00 | 12.6

— patent US8017602B2, “N-(2-(2-(5-hydroxy-3-oxo-3,4-dihydro-2H-benzo[b][1,4]oxazin-8-yl)ethylamino)ethyl)-3-(phenethoxy)propanamide derivatives, processes for their preparation, pharmaceutical compositions containing them and their use in therapy” (AstraZeneca AB, priority 2008, dated 2011)
